# Measured values taken from patent US11478471B2, “Methods and compositions for treating diabetes, metabolic syndrome and other conditions” (priority 2005, dated 2022).
# Where two headings read alike, the source gives them in different places.
# Experiments:
# [1] = cited from earlier work; for AUC 0-12 / Cmax / T ½: humans
# [2] = dog, in vivo, po, 40 mg/kg/day
# [3] = test system: Candida tropicalis; experiment: Antifungal MIC; assay type: cell-based; settings: read-out: MIC
# [4] = test system: Candida albicans; experiment: Antifungal MIC; assay type: cell-based
# [5] = test system: cholesterol levels; experiment: Cholesterol levels in rats after oral dosing; assay type: in vivo, Sprague Dawley rats; settings: single oral 200 mg/kg
# Method: The rats were maintained as described above; the drugs were suspended in olive oil, and each rat was dosed once via gastric tube to achieve a dose of 200 mg/kg. All of the rats were dosed at a specific time so that all terminations occurred between 6 and 7 pm. […] Following sacrifice, plasma was prepared, and the concentration of corticosterone in the plasma was determined by ELISA. In the same plasma samples, total cholesterol levels were also determined.
# [6] = test system: Saccharomyces cerevisiae; experiment: Antifungal MIC; assay type: cell-based; settings: DSM01333, DSM strain 01333, 48 h
# [7] = Toxicokinetics in the 28 day dog study of DIO-902 (with racemic ketoconazole group a); settings: beagle, plasma; for AUC(0-t): AUC(0-12); for concentration at 0 h / concentration at 1 h / concentration at 2 h / concentration at 4 h / concentration at 8 h / concentration at 12 h: Drug concentration in plasma;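 as to all read-outs here: beagle dogs dosed orally once daily within a 28-day GLP study, 3 animals per sex per group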
# [8] = following fifth 200 mg dose of racemic ketoconazole (every twelve hours)
# [9] = following first 200 mg dose of racemic ketoconazole
# [10] = normal volunteers, 200 mg dose of the racemic mixture
# [11] = female, po, 2 mg/kg, dogs, 2 mg/kg oral, day 1, F
# [12] = female, po, 2 mg/kg, dogs, 2 mg/kg oral, day 28, F
# [13] = female, po, 6.5 mg/kg, dogs, 6.5 mg/kg oral, day 28, F
# [14] = female, po, 6.5 mg/kg, dogs, 6.5 mg/kg oral, day 1, F
# [15] = female, po, 20 mg/kg, dogs, 20 mg/kg oral, day 28, F
# [16] = female, po, 20 mg/kg, dogs, 20 mg/kg oral, day 1, F
structure (smiles),measurement,setting,value
"CC(=O)N1CCN(c2ccc(OC[C@@H]3CO[C@@](Cn4ccnc4)(c4ccc(Cl)cc4Cl)O3)cc2)CC1 [DIO-902, 2S,4R cis-1-acetyl-4-[4-[[2-(2,4-dichlorophenyl)-2-(1H-imidazol-1-ylmethyl)-1,3-dioxolan-4-yl]methoxyl]phenyl]piperazine]",AUC 0-12,[1]; [8],538 ± 74 µg·min/mL
same,Cmax,[1]; [8],1530 ± 190 ng/mL
same,T ½,[1]; [8],3.62 ± 0.5 h
same,AUC 0-12,[1]; [9],302 ± 38 µg·min/mL
same,Cmax,[1]; [9],1060 ± 130 ng/mL
same,T ½,[1]; [9],2.22 ± 0.233 h
same,maximum plasma concentration,[1]; [10],approximately 3.6 μg/mL
same,time of maximum plasma concentration,[1]; [10],2 h
same,reduction in total white cell numbers,[2],20%
same,MIC,"[3]; DSM11951, DSM strain 11951, 48 h",0.06 µg/mL
same,MIC,"[3]; DSM11952, DSM strain 11952, 48 h",2 µg/mL
same,MIC,"[3]; DSM11953, DSM strain 11953, 48 h",0.06 µg/mL
same,MIC,"[4]; DSM11225, DSM strain 11225, 48 h, read-out: MIC",< 0.015 µg/mL
same,MIC,"[4]; DSM11943, DSM strain 11943, 48 h, read-out: MIC",< 0.015 µg/mL
same,MIC,"[4]; DSM11944, DSM strain 11944, 48 h, read-out: MIC",< 0.015 µg/mL
same,MIC,"[4]; DSM11945, DSM strain 11945, 48 h, read-out: MIC",0.03 µg/mL
same,MIC,"[4]; DSM11948, DSM strain 11948, 48 h, read-out: MIC",< 0.015 µg/mL
same,MIC,"[4]; DSM11949, 48 h",0.125 µg/mL
same,MIC,"[4]; strain 98-St-00799, 48 h, read-out: MIC",< 0.015 µg/mL
same,Cholesterol Levels (mean ± SEM),[5]; 4 h,69.6 ± 1.9 mg/dL
same,Cholesterol Levels (mean ± SEM),[5]; 8 h,73.5 ± 3.1 mg/dL
same,Cholesterol Levels (mean ± SEM),[5]; 12 h,77.3 ± 3.9 mg/dL
same,Cholesterol Levels (mean ± SEM),[5]; 16 h,61.9 ± 3.1 mg/dL
same,Cholesterol Levels (mean ± SEM),[5]; 20 h,58 ± 1.2 mg/dL
same,Cholesterol Levels (mean ± SEM),[5]; 24 h,61.9 ± 3.1 mg/dL
same,MIC,[6],0.25 µg/mL
same,Tmax,"[7]; both, oral, 20 mg/kg, Tmax values, dogs, 2, 6.5 and 20 mg/kg, Day 1",1 to 8 h
same,Tmax,"[7]; both, oral, 20 mg/kg, Tmax values, dogs, 2, 6.5 and 20 mg/kg, Day 28",1 to 12 h
same,Cmax,"[7]; both, po, 20 mg/kg/day, dogs, 20 mg/kg/day, day 28",9940 to 9950 ng/mL
same,AUC(0-t),"[7]; female, po, 2 mg/kg, dogs, 2 mg/kg oral, day 1, F, n = 1",2570 ng·h/mL
same,AUC(0-t),"[7]; female, po, 2 mg/kg, dogs, 2 mg/kg oral, day 28, F, n = 1",2760 ng·h/mL
same,Cmax,[7]; [11],450 ng/mL
same,Cmax,[7]; [12],750 ng/mL
same,concentration at 0 h,[7]; [11],< 250 ng/mL
same,concentration at 1 h,[7]; [11],< 250 ng/mL
same,concentration at 2 h,[7]; [11],270 ng/mL
same,concentration at 4 h,[7]; [11],280 ng/mL
same,concentration at 8 h,[7]; [11],< 250 ng/mL
same,concentration at 12 h,[7]; [11],< 250 ng/mL
same,concentration at 0 h,[7]; [12],< 250 ng/mL
same,concentration at 1 h,[7]; [12],290 ng/mL
same,concentration at 2 h,[7]; [12],520 ng/mL
same,concentration at 4 h,[7]; [12],300 ng/mL
same,concentration at 8 h,[7]; [12],< 250 ng/mL
same,concentration at 12 h,[7]; [12],< 250 ng/mL
same,Tmax,"[7]; female, po, 2 mg/kg, Tmax Range, dogs, 2 mg/kg oral, day 1, F",2 to 4 h
same,Tmax,"[7]; female, po, 2 mg/kg, Tmax Range, dogs, 2 mg/kg oral, day 28, F",1 to 8 h
same,AUC(0-t),"[7]; female, po, 6.5 mg/kg, dogs, 6.5 mg/kg oral, day 1, F, n = 1",4700 ng·h/mL
same,AUC(0-t),[7]; [13],12900 ng·h/mL
same,Cmax,[7]; [14],2570 ng/mL
same,Cmax,[7]; [13],2410 ng/mL
same,concentration at 0 h,[7]; [14],< 250 ng/mL
same,concentration at 1 h,[7]; [14],< 250 ng/mL
same,concentration at 2 h,[7]; [14],440 ng/mL
same,concentration at 4 h,[7]; [14],2320 ng/mL
same,concentration at 8 h,[7]; [14],500 ng/mL
same,concentration at 12 h,[7]; [14],< 250 ng/mL
same,concentration at 0 h,[7]; [13],< 250 ng/mL
same,concentration at 1 h,[7]; [13],250 ng/mL
same,concentration at 2 h,[7]; [13],1250 ng/mL
same,concentration at 4 h,[7]; [13],1850 ng/mL
same,concentration at 8 h,[7]; [13],1270 ng/mL
same,concentration at 12 h,[7]; [13],340 ng/mL
same,Tmax,"[7]; female, po, 6.5 mg/kg, Tmax Range, dogs, 6.5 mg/kg oral, day 1, F",2 to 4 h
same,Tmax,"[7]; female, po, 6.5 mg/kg, Tmax Range, dogs, 6.5 mg/kg oral, day 28, F",2 to 8 h
same,AUC(0-t),"[7]; female, po, 20 mg/kg, dogs, 20 mg/kg oral, day 1, F, n = 2",80600 ng·h/mL
same,AUC(0-t),[7]; [15],77800 ng·h/mL
same,Cmax,[7]; [16],14700 ng/mL
same,Cmax,[7]; [15],9950 ng/mL
same,concentration at 0 h,[7]; [16],< 250 ng/mL
